Patent US11207312B2, “Metallo-beta-lactamase inhibitors and methods of use thereof” (priority 2017, dated 2021)

Experiments:
[1] = system: Serratia marcescens expressing IMP-1 (CL5741); format: cell-based; details: with imipenem 1 μg/ml; 95% inhibition of bacterial growth
In short: (§1)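 MITC95 denotes the minimal test-compound level that, combined with 1 μg/ml imipenem, blocks 95% of bacterial growth, measured by absorbance. Overnight-grown clinical isolates were diluted 1:100 in CAMHB and incubated with both agents at 35° C for 22–24 h.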

[2] = system: Klebsiella pneumoniae expressing VIM-1 (IHMA599644); format: cell-based; details: with imipenem 1 μg/ml; 95% inhibition of bacterial growth
In short: as §1

[3] = system: Escherichia coli expressing NDM-1 (CLB30016); format: cell-based; details: with imipenem 1 μg/ml; 95% inhibition of bacterial growth
In short: as §1

[4] = system: P. aeruginosa MB9799 (efflux-, IMP-1 plasmid); format: cell-based, Pseudomonas aeruginosa; details: efflux − (MB9799) strain; imipenem at 2 μg/mL; in the presence of a class A, C, D serine β-lactamase inhibitor closely related to relebactam
In short: (§2)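 PAO1-derived isogenic pair (oprD+, inducible AmpC), efflux+ MB5919 or efflux− MB5890 parent, carrying an electroporated IMP-1 plasmid from a clinical isolate. Microbroth MIC with fixed imipenem and/or ceftazidime (usually CLSI breakpoint) plus fixed class A/C inhibitor; MBL inhibitor serially titrated, concentration restoring susceptibility recorded.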

[5] = system: P. aeruginosa MB9798 (efflux+, IMP-1 plasmid); details: for MB9798 MITC95 P. aeruginosa uM Efflux WT: efflux + (MB9798) strain, imipenem at 2 μg/mL, in the presence of a class A, C, D serine β-lactamase inhibitor closely related to relebactam; for Efflux ratio: fold difference between efflux+ (MB9798) and efflux− (MB9799) strains
In short: as §2

[6] = target: VIM-1 (Pseudomonas aeruginosa (strain ATCC 15692 / DSM 22644 / CIP 104116 / JCM 14847 / LMG 12228 / 1C / PRS 101 / PAO1), UniProt A0A0F7KYQ8); assay: biochemical; details: CCF2-FA fluorescence assay, 2 hours at 25° C.; read-out: VIM1 IC50
In short: (§3)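 Buffer 100 mM KH2PO4 pH 7, 0.005% Tween-20, 10 μM ZnSO4. NDM-1 1 pM, IMP-1 2 pM, VIM-1 30 pM final; CCF2-FA 1.25 μM. Cpd 20–0.00063 μM, 2 h, 25° C. Ex 405/Em 460 nm; IC50 via 4-parameter curve.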

[7] = target: IMP-1 (Serratia marcescens, UniProt P52699); assay: biochemical; details: CCF2-FA fluorescence assay, 2 hours at 25° C.; read-out: IMP1 IC50
Sequence of IMP-1 (P52699 whole entry, looked up, species assumed): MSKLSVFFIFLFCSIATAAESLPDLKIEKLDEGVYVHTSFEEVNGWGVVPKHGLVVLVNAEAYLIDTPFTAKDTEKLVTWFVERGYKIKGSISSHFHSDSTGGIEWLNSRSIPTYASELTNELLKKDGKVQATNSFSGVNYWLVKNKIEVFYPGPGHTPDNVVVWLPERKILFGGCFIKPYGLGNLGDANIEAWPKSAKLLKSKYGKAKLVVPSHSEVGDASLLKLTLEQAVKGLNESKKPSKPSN
In short: as §3

[8] = target: VIM-2 (Escherichia coli, UniProt Q5U7L7); assay: biochemical; details: CCF2-FA fluorescence assay; read-out: VIM2 IC50
[9] = target: NDM-1 (Klebsiella pneumoniae, UniProt C7C422); assay: biochemical; format: biochemical; details: CCF2-FA fluorescence assay, 2 hours at 25° C.
Sequence of NDM-1 (C7C422 whole entry, looked up, species assumed): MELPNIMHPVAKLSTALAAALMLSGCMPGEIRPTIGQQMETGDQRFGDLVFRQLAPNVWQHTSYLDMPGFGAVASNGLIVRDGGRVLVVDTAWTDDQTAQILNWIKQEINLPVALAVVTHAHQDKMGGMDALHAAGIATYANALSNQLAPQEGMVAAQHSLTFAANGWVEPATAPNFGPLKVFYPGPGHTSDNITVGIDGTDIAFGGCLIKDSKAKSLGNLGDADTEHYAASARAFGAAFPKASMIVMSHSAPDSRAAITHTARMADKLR
In short: as §3

Structure (SMILES)	CL5741 S. marcescens MITC95 IMP [1] [µM]	IHMA599644 K. pneumoniae MITC95 VIM [2] [µM]	CLB30016 E. coli MITC95 NDM [3] [µM]	MB9799 MITC95 P. aeruginosa uM Efflux Mutant [4] [µM]	MB9798 MITC95 P. aeruginosa uM Efflux WT [5] [µM]	Efflux ratio [5]	IC50 [6] [nM]	IC50 [7] [nM]	IC50 [8] [nM]	IC50 [9] [nM]
NC[C@@H](O)CNS(=O)(=O)c1ccc(N2CCN3CCOCC3C2)c(-c2nn[nH]n2)c1S(N)(=O)=O (stereo partly drawn) [Example 129, N1-((R)-3-amino-2-hydroxypropyl)-4-(hexahydropyrazino [2,1-c][1,4]oxazin-8(1H)-yl)-3-(2H-tetrazol-5-yl)benzene-1,2-disulfonamide 2,2,2-trifluoroacetate]	3.13	12.50	6.25	3.13	6.25	2.00	3.53	4.72	6.44	2.7
NS(=O)(=O)c1c(S(=O)(=O)N[C@@H]2CCNC2)ccc(N2CCC(CCO)C2)c1-c1nnn[nH]1 (stereo partly drawn) [Example 81, 4-[3-(2-hydroxyethyl)pyrrolidin-1-yl]-N1-[(3R)-pyrrolidin-3-yl]-3-(1H-tetrazol-5-yl)benzene-1,2-disulfonamide]	3.13	6.25	3.13	3.13	6.25	2.00	0.51	0.62	1	0.64
NCCN1CCN(c2ccc(S(=O)(=O)NC[C@H](O)CN)c(S(N)(=O)=O)c2-c2nnn[nH]2)CC1 [Example 51, (R)-N1-(3-amino-2-hydroxypropyl)-4-(4-(2-aminoethyl)piper-azin-1-yl)-3-(1H-tetrazol-5-yl)benzene-1,2-disulfonamide]	0.39	0.78	0.78	0.39	0.78	2.00	0.29	1.92	3.07	1.4
NS(=O)(=O)c1c(S(=O)(=O)N[C@@H]2CCNC2)ccc(N2CCCCC2=O)c1-c1nn[nH]n1 [Example 154, (R)-4-(2-oxopiperidin-1-yl)-N1-(pyrrolidin-3-yl)-3-(2H-tetrazol-5-yl)benzene-1,2-disulfonamide]	1.56	6.25	1.56	1.56	3.13	2.00	0.26	8.46	0.73	0.35
NC[C@@H](O)CNS(=O)(=O)c1ccc(N2CCC[C@@H](CN)C2)c(-c2nnn[nH]2)c1S(N)(=O)=O [Example 38, N1-((R)-3-amino-2-hydroxypropyl)-4-((S)-3-(aminomethyl)piperidin-1-yl)-3-(1H-tetrazol-5-yl)benzene-1,2-disulfonamide]	0.78	0.78	0.20	0.78	3.13	4.00	0.67	20.6	2.11	6.3
NCCC1CN(c2ccc(S(=O)(=O)NC[C@H](O)CN)c(S(N)(=O)=O)c2-c2nn[nH]n2)C1 [Example 144, (R)-N1-(3-amino-2-hydroxypropyl)-4-(3-(2-aminoethyl)azetidin-1-yl)-3-(2H-tetrazol-5-yl)benzene-1,2-disulfonamide]	6.25	3.13	3.13	3.13	12.50	4.00	4.23	89.6	200	111
